In patent publication US11186587B2, “Compound as ACC inhibitor and use thereof” (NANJING SANHOME PHARMACEUTICAL CO., LTD., priority 2017, dated 2021):

Tests used:
[1] = tested on: HFD-CCL4 induced NASH model; test: Drug efficacy on NASH and liver fibrosis induced by HFD-CCL4; type: in vivo; details: C57BL/6 mice, HFD 10 weeks + CCL4 4 weeks; intragastric once a day for 4 weeks; Example 25 10 mg/kg/d, ND-630 30 mg/kg/d; H&E staining
Protocol: High-fat diet (HFD) was used to induce liver steatosis in animals, and then carbon tetrachloride (CCL4) was used to induce liver inflammation, necrosis, and liver fibrosis. This model was similar to the human NASH disease process and pathological phenomenon. The purpose of this experiment was to evaluate the efficacy of the compound of the disclosure in a NASH model of C57BL/6 mice induced by HFD-CCL4, with ND-630 as a control compound. HFD-CCL4 inducement was performed for 10 weeks and drug intervention was performed for 4 weeks. The therapeutic effects of the drug on NASH and liver fibrosis were observed.
The test compounds in the examples of the present disclosure and ND-630 were diluted to 0.3 mg/mL, 1 mg/mL, 3 mg/mL with PEG200:0.2M Na2HPO4-NaH2PO4 buffer (35:65), which was prepared just before use.
HFD-CCL4 induced NASH model in C57BL/6 mice: the animals were first housed in the SPF barrier of the KCI Experimental Animal Center for 3-7 days, and then the animals were changed to HFD feeding in a cycle of 10 weeks. […]
The left liver lobe sample was fixed with 10% formalin and embedded in paraffin to prepare 5 μm sections for haematoxylin-eosin (H&E) staining. Hematoxylin-eosin staining can detect tissue inflammation, fat deposition, vacuolar degeneration and tissue fibrosis, giving semi-quantitative analysis for the lesion.
The data were expressed as mean±standard error. […]

[2] = biological target: ACC2 (Homo sapiens (Human), UniProt O00763); test: ACC2 enzyme activity assay (ADP-Glo); type: biochemical; details: ACC2 enzyme 1.1 nM working solution, room temperature
Chain of ACC2 (O00763 whole entry): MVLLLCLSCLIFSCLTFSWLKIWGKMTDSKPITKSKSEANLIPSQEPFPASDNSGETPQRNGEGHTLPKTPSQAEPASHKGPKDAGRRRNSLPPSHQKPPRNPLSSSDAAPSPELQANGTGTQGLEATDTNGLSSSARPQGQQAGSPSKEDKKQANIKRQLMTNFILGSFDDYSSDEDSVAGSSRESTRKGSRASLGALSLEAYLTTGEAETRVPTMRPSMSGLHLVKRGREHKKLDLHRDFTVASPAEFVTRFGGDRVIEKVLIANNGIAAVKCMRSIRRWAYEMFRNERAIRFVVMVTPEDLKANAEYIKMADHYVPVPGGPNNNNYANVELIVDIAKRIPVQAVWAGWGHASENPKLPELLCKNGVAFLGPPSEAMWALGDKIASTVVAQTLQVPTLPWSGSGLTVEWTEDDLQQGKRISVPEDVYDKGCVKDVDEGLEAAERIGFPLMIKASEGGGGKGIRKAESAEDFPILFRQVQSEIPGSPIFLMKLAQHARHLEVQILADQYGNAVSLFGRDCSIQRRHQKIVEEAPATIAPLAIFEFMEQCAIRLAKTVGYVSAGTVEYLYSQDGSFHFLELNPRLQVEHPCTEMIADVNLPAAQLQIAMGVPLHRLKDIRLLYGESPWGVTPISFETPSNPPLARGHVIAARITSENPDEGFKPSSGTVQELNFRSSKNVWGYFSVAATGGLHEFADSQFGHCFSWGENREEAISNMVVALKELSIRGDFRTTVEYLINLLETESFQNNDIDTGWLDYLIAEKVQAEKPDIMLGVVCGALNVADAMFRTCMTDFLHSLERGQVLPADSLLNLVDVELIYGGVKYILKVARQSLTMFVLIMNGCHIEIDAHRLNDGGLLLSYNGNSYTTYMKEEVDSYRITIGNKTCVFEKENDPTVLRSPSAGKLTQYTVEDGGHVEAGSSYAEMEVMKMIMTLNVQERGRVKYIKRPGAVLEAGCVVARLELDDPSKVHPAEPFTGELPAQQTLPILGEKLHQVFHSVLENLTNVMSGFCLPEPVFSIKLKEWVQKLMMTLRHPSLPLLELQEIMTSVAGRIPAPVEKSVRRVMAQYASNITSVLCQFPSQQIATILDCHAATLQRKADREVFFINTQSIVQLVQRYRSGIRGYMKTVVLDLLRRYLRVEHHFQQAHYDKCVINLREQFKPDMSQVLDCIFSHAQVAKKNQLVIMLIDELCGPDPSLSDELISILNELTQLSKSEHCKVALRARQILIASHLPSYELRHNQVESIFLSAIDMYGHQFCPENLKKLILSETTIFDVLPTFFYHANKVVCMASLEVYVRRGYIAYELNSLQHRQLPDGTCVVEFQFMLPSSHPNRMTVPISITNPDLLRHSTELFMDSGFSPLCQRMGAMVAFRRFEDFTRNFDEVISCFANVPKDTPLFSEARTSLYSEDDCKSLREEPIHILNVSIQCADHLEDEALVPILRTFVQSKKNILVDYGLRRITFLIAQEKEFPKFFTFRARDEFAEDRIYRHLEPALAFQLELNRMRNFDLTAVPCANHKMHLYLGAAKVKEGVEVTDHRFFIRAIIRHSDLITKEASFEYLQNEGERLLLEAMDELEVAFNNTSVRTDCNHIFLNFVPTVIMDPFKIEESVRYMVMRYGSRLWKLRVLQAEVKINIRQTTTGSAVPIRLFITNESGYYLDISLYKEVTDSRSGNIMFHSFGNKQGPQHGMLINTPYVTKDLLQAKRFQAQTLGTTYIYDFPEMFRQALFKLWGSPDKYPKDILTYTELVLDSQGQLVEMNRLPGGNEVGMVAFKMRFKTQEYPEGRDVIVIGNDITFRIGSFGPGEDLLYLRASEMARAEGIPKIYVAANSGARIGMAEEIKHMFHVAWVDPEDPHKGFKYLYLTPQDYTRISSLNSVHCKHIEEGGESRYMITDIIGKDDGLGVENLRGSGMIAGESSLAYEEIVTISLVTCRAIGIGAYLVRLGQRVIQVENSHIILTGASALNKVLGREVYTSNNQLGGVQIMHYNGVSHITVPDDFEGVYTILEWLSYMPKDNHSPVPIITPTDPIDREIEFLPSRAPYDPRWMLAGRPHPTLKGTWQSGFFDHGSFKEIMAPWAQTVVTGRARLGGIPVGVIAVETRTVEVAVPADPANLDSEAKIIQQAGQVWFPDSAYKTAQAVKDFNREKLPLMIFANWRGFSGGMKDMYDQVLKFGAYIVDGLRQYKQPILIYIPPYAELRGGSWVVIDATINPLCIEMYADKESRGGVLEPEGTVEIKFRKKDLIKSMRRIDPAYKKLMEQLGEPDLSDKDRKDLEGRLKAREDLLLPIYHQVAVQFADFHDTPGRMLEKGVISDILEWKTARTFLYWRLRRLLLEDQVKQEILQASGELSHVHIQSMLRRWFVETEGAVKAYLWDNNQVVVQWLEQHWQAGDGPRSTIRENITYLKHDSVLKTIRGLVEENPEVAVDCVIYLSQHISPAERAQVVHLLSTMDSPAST
Protocol: Compound preparation: the compounds of the present disclosure prepared in the above examples and the control compound were respectively formulated into 10 mM with DMSO for use.
Preparation of 1× reaction buffer (pH=7.4): HEPES stock solutions (1 M), MgCl2 (1 M), BRIJ-35 (10%), potassium citrate buffer (1 M), BSA (10 mg/mL) and DTT (500 mM) were formulated to enzyme reaction buffer containing HEPES (50 mM), MgCl2 (2 mM), BRIJ-35 (0.01%), potassium citrate buffer (2 mM), BSA (50 Gg/mL) and DTT (2 mM).
The mixture was incubated at room temperature for 15 min.
Negative control group: menstruum containing 5% DMSO; positive control group: menstruum containing 100 nM ND-630. The average values of each concentration and the positive and negative controls were calculated, and the standard deviation was calculated. […] The inhibition rate data was fitted by nonlinear regression equation to calculate IC50 of each compound. The nonlinear regression equation was Y=lowest value+(highest value−lowest value)/(1+10^((Log IC50−X)×HillSlope)), among which X is logarithm of the compound concentration and Y is inhibition percent (%).

In the case of `COc1ccccc1[C@H](Cn1c(=O)n(C(C)(C)C(=O)O)c(=O)c2c(C)c(-c3ncco3)sc21)OC1CCOCC1` [ND-630, 2-[1-[2-(2-methoxyphenyl)-2-(oxecyclo-4-yloxy)ethyl]-5-methyl-6-(1,3-oxazol-2-yl)-2,4-dioxo-1H,2H,3H,4H-thieno[2,3-d]pyrimidin-3-yl]-2-methylpropanoic acid, reference compound], the “Hepatic steatosis score (Mean ± SD)” value [1] is reported as 0.13 ± 0.32, the “Hepatocyte necrosis score (Mean ± SD)” value [1] is reported as 1.00 ± 0.61 and the IC50 [2] is reported as 3.56 nM.
